Laboratory results reported in patent publication US11819533B2, “Compositions and methods for the treatment of fungal infections” (Cidara Therapeutics, Inc., priority 2017, dated 2023).
Starred links: 1 amine or outer side, 2 acyl side, 3 side chain; linkers in the order of their positions; H or OH if unused. Positions of bridges follow the written chain, without caps; N, C: chain ends. Non-standard residues stand in square brackets, D forms with d. Residues, ends and D or L forms follow the SMILES beside them. *: point of attachment. Orn(4R-OH,5R-OCH2CH2NMe3+) = C[N+](C)(C)CCO[C@@H](N[*:3])[C@H](O)C[C@H](N[*:1])C(=O)[*:2]; pTerphenylCO(4''-OnC5H11) = CCCCCOc1ccc(-c2ccc(-c3ccc(C(=O)*)cc3)cc2)cc1; Orn(4R-OH,5R-OH) = O=C([C@H](C[C@@H](O)[C@@H](O)N[*:3])N[*:1])[*:2]; hTyr(3S-OH,4S-OH) = N[C@H](C(=O)O)[C@H](O)[C@@H](O)c1ccc(O)cc1; Pro(3S-OH,4S-Me) = C[C@H]1CN[C@H](C(=O)O)[C@H]1O; Hyp = O=C(O)[C@@H]1C[C@@H](O)CN1

Assays:
[1] = system: C. albicans SC-5314 biofilms; assay: Activity against mature phase biofilms (treatment), XTT and CSLM; assay type: cell-based, Candida albicans; conditions: for CSLM biofilm architecture, mature phase / Metabolic activity (XTT) of mature phase biofilms compared to untreated: 24 h exposure of mature biofilms, CD101 0.25 and 1 μg/ml, fluconazole 1 and 4 μg/ml; for Thickness of biofilms, mature phase: CSLM, untreated control 43 μm
Protocol: (§1) C. albicans SC-5314 was used for the current study.
(§2) In this study, biofilms were grown in vitro using a biofilm model (Chandra et al., Nature Protocols 3:1909, 2008) and the effect of CD101 on adhesion phase biofilms (representing prevention of biofilms) or mature phase biofilms (representing treatment of biofilms) was determined.
(§3) Biofilms were formed on silicone elastomer (SE) discs using a catheter-associated-biofilm model (Chandra et al., Nature Protocols 3:1909, 2008; Chandra et al., J. Bacteriol. 183: 5385, 2001; Chandra et al., J. Dental Research 80: 903, 2001). For evaluation of activity against adhesion phase biofilms (prevention), Candida cells were adhered to catheter discs for 90 min. […] For evaluation of activity against mature phase biofilms (treatment), Candida cells were adhered to catheter discs for 90 min, then transferred to fresh media and incubated for a further 24 h to allow formation of biofilms. […] Discs incubated with fluconazole or media alone were used as controls in all experiments.
(§4) At the end of drug exposure in both adhesion and mature phase biofilms, biofilms were quantified by measuring their metabolic activity using XTT assay (Chandra et al., Nature Protocols 3:1909, 2008; Chandra et al., J. Bacteriol. 183: 5385, 2001; Chandra et al., J. Dental Research 80: 903, 2001). Following incubation with drugs, discs were transferred to fresh plates containing phosphate buffered saline with XTT and menadione, incubated for 3 h at 37° C. and optical density was read at 492 nm. Separate batches of biofilms were stained with fluorescent dyes (FUN1™, CONA) and observed under Confocal Scanning Laser Microscope (CSLM) to evaluate biofilm architecture and thickness (Chandra et al., Nature Protocols 3:1909, 2008; Chandra et al., J. Bacteriol. 183: 5385, 2001).

[2] = system: Candida auris; assay: Candida auris infection in a murine model of disseminated candidiasis; assay type: in vivo; conditions: immunosuppressed CD-1 mice; for Percent survival at the end of the study: day 14, CD101 20 mg/kg IP, fluconazole 20 mg/kg PO, amphotericin B 0.3 mg/kg IP, doses on day 1 and day 4
Protocol: Female 6-8 week old CD-1 mice were immunosuppressed with cyclophosphamide (200 mg/kg) 3 days prior to infection and 150 mg/kg 1 day post-infection. On the day of infection, mice were inoculated with 3×10^7 C. auris blastospores via the lateral tail vein. Mice were randomized into 5 groups (n=5 for colony forming units (CFU) and n=10 for survival): CD101 20 mg/kg administered by intraperitoneal (IP) injection, fluconazole 20 mg/kg administered per os (PO), amphotericin B 0.3 mg/kg IP, and a vehicle control. Treatments were administered 2 hours post-infection (day 1) and again on day 4 of the study for a total of 2 doses. Mice were monitored daily and a survival curve was generated. CFU groups were sacrificed on day 8 of the study. One kidney was removed from each mouse, homogenized, plated on potato dextrose agar (PDA), and incubated at 35° C. for 2 days to determine CFU. The remaining survival mice were monitored until the end of the study (day 14).

[3] = system: C. albicans SC-5314 biofilms; assay: Activity against adhesion phase biofilms (prevention), XTT and CSLM; assay type: cell-based, Candida albicans; conditions: for CSLM biofilm architecture, adhesion phase / Metabolic activity (XTT) of adhesion phase biofilms compared to untreated: 24 h exposure, CD101 0.25 and 1 μg/ml, fluconazole 1 and 4 μg/ml; for Thickness of biofilms, adhesion phase: CSLM, untreated control 36 μm
Protocol: as §1, §2, §3, §4

[4] = system: Sprague Dawley rats; assay: 14-day repeat-dose intravenous infusion toxicity study; assay type: in vivo
Protocol: The primary purpose of this study was to evaluate the toxicity of CD101 when administered intravenously as a 20-minute infusion into the lateral tail vein of Sprague Dawley rats for fourteen consecutive days. A positive control group (Eraxis®) with a similar structure and pharmacodynamic activity was included in the study design.
The test article, CD101 acetate, was a white to off-white powder. The test article was prepared into dosing formulations for intravenous dose administration. One hundred experimentally naïve Sprague Dawley rats (50 males and 50 females), a minimum of 8 weeks old and weighing 255-318 grams (males) and 192-215 (females) at the outset of the study were assigned to treatment groups as shown in Table 7 below:
All animals were dosed on Days 1 through 3 inclusive. As a result of tail vein irritation observed among all study groups, dose administration was suspended on Day 4 to allow the tails to recover. Dosing resumed on Day 5 and continued for a maximum of ten additional days (Days 5 through 14 inclusive). Animals that could no longer be dosed during this time remained on study.
Male and female Sprague Dawley rats were to receive CD101 acetate at doses of 0, 2, 6 and 20 mg/kg/day (Groups 1, 3, 4 and 5, respectively) or Eraxis® (the positive control article, Group 2) at a dose of 40 mg/kg/day, intravenously as a 20 minute infusion into the left or right lateral tail vein for fourteen consecutive days. During the first three treatment days, all animals were dosed with the first vehicle used on this study (1.75% Tween 80/5% Dextrose: Groups 1 and 3-5; 5% Dextrose: Group 2). As a result of the localized tail swelling observed during the first three days of treatment, study Day 4 served as a drug-free day to alleviate tail vein irritation. Dose administration resumed on Day 5 using a new vehicle (5% Mannitol/2.5% Tween 80/0.3% acetic acid: Groups 1 and 3-5; 5% Mannitol/0.3% acetic acid: Group 2) for the remainder of the treatment period (Days 5-14). Those animals that could no longer be dosed because of severe vein irritation were retained on study, untreated, until the end of the study (Day 15).

[5] = PBS drop test of CD101 IV formulations (Example 4); assay type: physicochemical; conditions: 6 mg/mL in 1.25% Tween 80, 5% mannitol, 0.3% glacial acetic acid, pH ~4.5; 0.25 mL into 1 mL PBS
Protocol: Solubility of CD101-containing formulations with different percentages of Tween 80 (also referred to as polysorbate 80) was evaluated in a “PBS drop test.” This involved preparing a known concentration of CD101 in a formulation and injecting the formulation into PBS to visually examine for precipitation. This test was used to assess if a CD101-containing formulation would remain soluble in blood during IV infusions.
(1) 1.25% Tween 80, 5% mannitol, 0.3% glacial acetic acid, pH ˜4.5
(2) 0.50% Tween 80, 0.76% mannitol, 0.125% sodium lactate in 3.5% dextrose solution, pH ˜5.5
Different concentrations of CD101 acetate were prepared in vehicles (1) and (2) and tested for solubility in the PBS drop test.
Add dropwise the formulated solution into PBS solution (1:4 dilution). Visually observe the resulting solution upon addition for any precipitation.

[6] = PBS buffer drop test (Example 3); assay type: physicochemical; conditions: 0.50% Tween 80, 0.76% mannitol, 0.125% sodium lactate in 3.5% dextrose solution, pH ~5.5; 2 mg/mL, 0.47 mg/mL in PBS
Protocol: These solutions were tested for solubility in the PBS drop test, which involved adding the solution dropwise into PBS solution (1:4.3 dilution) and visually observing the resulting solution for any precipitation. PBS buffer serves as a surrogate for plasma, and the PBS drop test is used to evaluate the potential for insolubility as the drug enters the bloodstream at the injection site.

[7] = system: C. albicans SC-5314 biofilms; assay: Time lapse microscopy of biofilm formation; assay type: cell-based, Candida albicans; conditions: followed up to 16 h
Description: The effective CD101 concentration obtained from the above experiments was used to monitor its effect on biofilm formation in real time using TLM, which involves capturing real-time images of a single frame at specific time intervals, allowing temporal monitoring of the interactions occurring between the drug and Candida biofilms. Captured images were combined in a time sequence, resulting in an animation depicting the sequence of events that occurred with the passage of time. Briefly, the discs with C. albicans (adhered for 90 min as above) were placed in a 35-mm-diameter glass-bottom Petri dish (MatTek Corp., Ashland, MA). […] Phase contrast images for this interaction were captured immediately from 0 h and followed up to 16-17 h on a Leica DMI 6000 B inverted microscope connected to a Retiga EXi Aqua camera (Q-imaging Vancouver British Columbia). To determine the structural changes in the maturing biofilm, both acquisition and analysis of a series of horizontal (xy) optical sections of the biofilm was done using Metamorph Imaging software (Molecular Devices, Downington, PA). Disc incubated with media alone was used as control.

Row | Structure (SMILES) | CSLM biofilm architecture, mature phase [1] | Metabolic activity (XTT) of mature phase biofilms compared to untreated [1] | Thickness of biofilms, mature phase [1] | Percent survival at the end of the study [2] [%] | CSLM biofilm architecture, adhesion phase [3] | Metabolic activity (XTT) of adhesion phase biofilms compared to untreated [3] | Thickness of biofilms, adhesion phase [3] | Incidence of tail vein irritation ([4]; Days 1-3, first vehicle (1.75% Tween 80 and 5% Dextrose for CD101 acetate; 5% Dextrose for Eraxis), Eraxis 40 mg/kg/day, CD101 acetate 6 and 20 mg/kg/day, males and females) | Vein irritation compared to Groups 1, 3 and 4 ([4]; Days 5-14, second vehicle (5% Mannitol, 2.5% Tween 80, 0.3% Acetic Acid for CD101 acetate; 5% Mannitol and 0.3% Acetic Acid for Eraxis), Eraxis 40 mg/kg/day, CD101 acetate 20 mg/kg/day) | Animals dosed for less than the intended ten-day duration (Days 5-14) as a result of tail swelling/lesions ([4]; males, 40 mg/kg/day (Group 2), 20-minute IV infusion, second vehicle 5% Mannitol/0.3% acetic acid) [%] | Time the formulated solution remained soluble in PBS [5] | Average reduction in kidney CFU compared to fluconazole, amphotericin B and vehicle treated groups ([2]; 20 mg/kg IP on day 1 and day 4, kidney on day 8) [log] | Appearance upon PBS drop test [6] | Temporal effect on 3 h formed biofilms (time lapse) ([7]; 0.25 μg/ml added after 3 h biofilm formation) | Temporal effect on formation of biofilms (time lapse) ([7]; 0.25 μg/ml added to cells adhered for 90 min)
1 | OC(Cn1cncn1)(Cn1cncn1)c1ccc(F)cc1F [fluconazole, reference compound] | did not affect Candida biofilms | neither concentrations of fluconazole (1 and 4 μg/ml) affected these biofilms | no effect | 0 | did not inhibit biofilm formation | did not inhibit biofilm formation | no effect on biofilm thickness | – | – | – | – | – | – | – | –
2 | CCCCCOc1ccc(-c2ccc(-c3ccc(C(=O)N[C@H]4C[C@@H](O)[C@@H](O)NC(=O)[C@@H]5[C@@H](O)[C@@H](C)CN5C(=O)[C@H]([C@@H](C)O)NC(=O)[C@H]([C@H](O)[C@@H](O)c5ccc(O)cc5)NC(=O)[C@@H]5C[C@@H](O)CN5C(=O)[C@H]([C@@H](C)O)NC4=O)cc3)cc2)cc1 [Eraxis®, Anidulafungin, reference compound] ({pTerphenylCO(4''-OnC5H11)}-[Orn(4R-OH,5R-OH)]T[Hyp][hTyr(3S-OH,4S-OH)]T[Pro(3S-OH,4S-Me)]; lactam 1-C) | – | – | – | – | – | – | – | highest | only marginally higher | 30 | – | – | – | – | –
3 | CCCCCOc1ccc(-c2ccc(-c3ccc(C(=O)N[C@H]4C[C@@H](O)[C@@H](OCC[N+](C)(C)C)NC(=O)[C@@H]5[C@@H](O)[C@@H](C)CN5C(=O)[C@H]([C@@H](C)O)NC(=O)[C@H]([C@H](O)[C@@H](O)c5ccc(O)cc5)NC(=O)[C@@H]5C[C@@H](O)CN5C(=O)[C@H]([C@@H](C)O)NC4=O)cc3)cc2)cc1 [CD101] ({pTerphenylCO(4''-OnC5H11)}-[Orn(4R-OH,5R-OCH2CH2NMe3+)]T[Hyp][hTyr(3S-OH,4S-OH)]T[Pro(3S-OH,4S-Me)]; lactam 1-C) | eradicated and showed bulged, deformed/broken cells | significantly less metabolic activity | 24 μm | 80 | only remnants of adhered cells, and no biofilm maturation | formed significantly less biofilms | 4 μm | – | – | – | at least 1 hour | 3 | Clear | remained stunted and failed to grow into mature biofilms | only adhered cells with stunted growth, which failed to grow into mature biofilms
4 | C[C@@H]1[C@H](O)[C@@H](C)/C=C/C=C/C=C/C=C/C=C/C=C/C=C/[C@H](O[C@@H]2O[C@H](C)[C@@H](O)[C@H](N)[C@@H]2O)C[C@@H]2O[C@](O)(C[C@@H](O)C[C@@H](O)[C@H](O)CC[C@@H](O)C[C@@H](O)CC(=O)O[C@H]1C)C[C@H](O)[C@H]2C(=O)O [amphotericin B, reference compound] | – | – | – | 30 | – | – | – | – | – | – | – | – | – | – | –
